Data: patent US6660320B1, “Process for producing an antioxidant extract from the bearberry plant” (University of Saskatchewan Technologies Inc., priority 1999, dated 2003)

Tests used:
[1] = β-carotene-linoleate model system; conditions: 0.5 mg of BHA per 5 mL emulsion, 50° C., FIG. 1
Description: The antioxidant activity of the bearberry extract was evaluated using a β-carotene-linoleate model system (Miller, 1971). Briefly, 2-mg quantities of β-carotene were dissolved in 10 mL of chloroform. One millilitre of this solution was then pipetted into a small round-bottom flask. After removing the chloroform using a rotary evaporator, 20 mg of purified linoleic acid, 200 mg of Tween 40 emulsifier and 50 mL of aerated, distilled water were added to the flask with vigorous stirring. Aliquots (5 mL) of prepared emulsion were transferred to a series of tubes containing 2 mg of extract or 0.5 mg of BHA. As soon as the emulsion was added to each tube, the zero time absorbance was read at 470 nm (nanometers) against a reagent blank using a spectrophotometer. Subsequent absorbance readings were recorded at 15-minute intervals by keeping the samples in water bath at 50° C. until the color of β-carotene disappeared.

[2] = meat model system, TBARS of cooked comminuted pork
Description: The efficacy of the bearberry extract was tested in a meat model system. Pork cushions were obtained from Mitchell's Gourmet Foods, Ltd. (Saskatoon, SK). The meat was ground two times through a ⅛-inch plate using a Biro grinder/food mixer (AMFG Model 24, Marblehead, Ohio). Pork from the meat block was transferred to Mason jars and mixed with 20% (w/w) distilled water and various additives. Meat systems were thermal processed in an 85° C. thermostated water bath with occasional stirring by a glass rod until an internal temperature of 75±1° C. was reached. The meat systems were cooled to room temperature, homogenized in an Osterizer (Sunbeam Corporation [Canada] Ltd., Toronto, ON) blender for 30 seconds, transferred to Whirl Pak bags (Systems Plus, New Hamburg, ON) and refrigerated at 4° C. until used.
(§1) Thiobarbituric reactive substances (TBARS) were determined for the bearberry extract (Witte et al.,1970, and Bedinghaus and Ockerman, 1995). Briefly, a 5-g portion of each sample was transferred to a stomacher bag in which 50 mL of a 20% (w/v) TCA and 1.6% (v/v) phosphoric acid solution were added. Each sample was stomached (Stomacher Lab-Blender 400, Model BA6021, A. J. Seward, Co., Bury St. Edmunds, UK) for 2 minutes and then 50 mL of cold distilled water were added. After blending for an additional minute, each sample was filtered through Whatman #1 filter paper into a 100-mL volumetric flask. Each flask was filled to mark with distilled water/TCA solution (1:1 v/v) and its contents were mixed well. Five-mL aliquots from each sample were pipetted to polypropylene conical centrifuge tubes (VWR Canlab, Mississauga, ON) to which an equivalent volume of a 0.02 M aqueous TBA reagent was added. Tubes were capped and heated in a boiling water bath for 35 minutes, and then cooled in an ice bath. Absorbance measurements of the pink-colored chromogen were made at 532 nm against a reagent blank using a spectrophotometer. A ‘k’ factor of 20.1 was determined from a calibration curve based on addition of known quantities of the malonaldehyde precursor, 1,1,3,3-tetramethoxypropane, to cooked meat samples prior to extraction and an average recovery of 85.5% was found.

[3] = TBA analysis of cooked pork patties; conditions: 50 ppm TBHQ; 200 ppm bearberry extract; both formulations, stored at 4° C.
Description: as §1, with “Tubes were capped and heated in a boiling water bath for 35 minutes, and then cooled in an ice bath.” left out, “found. […]” for “found.”
TBA reactive substances were determined in cooked pork patties over the course of the study as has been previously described.

SMILES: COc1ccc(O)c(C(C)(C)C)c1 [BHA, butylated hydroxyanisole]
- inhibition of β-carotene consumption throughout the incubation [1]: completely inhibited β-carotene consumption

SMILES: CC(C)(C)c1cc(O)ccc1O [TBHQ, tert-butylhydroquinone]
- TBARS Values ([2]; Table 3, 50 ppm, 1 day of storage at 4° C.): 0.10 mg malonaldehyde eq./kg sample
- TBARS Values ([2]; Table 3, 50 ppm, 3 days of storage at 4° C.): 0.10 mg malonaldehyde eq./kg sample
- TBARS Values ([2]; Table 3, 50 ppm, 5 days of storage at 4° C.): 0.10 mg malonaldehyde eq./kg sample
- TBARS Values ([2]; Table 3, 50 ppm, 7 days of storage at 4° C.): 0.20 mg malonaldehyde eq./kg sample
- TBARS Values ([2]; Table 3, 50 ppm, 14 days of storage at 4° C.): 0.34 mg malonaldehyde eq./kg sample
- TBARS Values ([2]; Table 4, 50 ppm, 1 day of storage at 4° C.): 0.10 mg malonaldehyde eq./kg sample
- TBARS Values ([2]; Table 4, 50 ppm, 3 days of storage at 4° C.): 0.10 mg malonaldehyde eq./kg sample
- TBARS Values ([2]; Table 4, 50 ppm, 5 days of storage at 4° C.): 0.10 mg malonaldehyde eq./kg sample
- TBARS Values ([2]; Table 4, 50 ppm, 7 days of storage at 4° C.): 0.23 mg malonaldehyde eq./kg sample
- TBARS Values ([2]; Table 4, 50 ppm, 14 days of storage at 4° C.): 0.45 mg malonaldehyde eq./kg sample
- TBA results, lipid oxidation during storage [3]: retarded lipid oxidation during storage
